Values of other authors, collected in patent publication US20230285483A1, “TINCTURE CONTAINING CANNABINOIDS, METHOD OF USING, AND METHOD OF MAKING THE SAME” (priority 2022, published 2023).

Tests used:
[1] = biological target: spike proteins found on the virus (Severe acute respiratory syndrome coronavirus 2, UniProt P0DTC2); settings: study by researchers at Oregon State University
coronavirus = settings: study by researchers at Oregon State University

| SMILES | binding to spike proteins found on the virus [1] | blocking of a step the pathogen uses to infect people (coronavirus) |
| --- | --- | --- |
| C=C(C)[C@@H]1CCC(C)=C[C@H]1c1c(O)cc(CCCCC)c(C(=O)O)c1O [CBDa, cannabidiolic acid] | bind to spike proteins | blocked a step the pathogen uses to infect people |
| CCCCCc1cc(O)c(C/C=C(\C)CCC=C(C)C)c(O)c1C(=O)O [CBGa, cannabigerolic acid] | bind to spike proteins | blocked a step the pathogen uses to infect people |
